Measured values reported in US20160355483A1, “COMPOUND BINDING TO PPARG BUT NOT ACTING AS PROMOTER AND PHARMACEUTICAL COMPOSITION FOR TREATING PPARG-RELATED DISEASES CONTAINING SAME AS ACTIVE INGREDIENT” (Hyundai Pharm Co., Ltd., priority 2014, published 2016).

Biological target: T1, PPARG (peroxisome proliferator activated receptor-gamma), GST-PPARG-LBD (Homo sapiens, UniProt P37231)
T1 construct: 15 μL of 5 nM GST-PPARG-LBD and 5 nM Tb-GST-antibody were added; purchased Invitrogen PV4894
T1 sequence (P37231 238-503 limits assumed): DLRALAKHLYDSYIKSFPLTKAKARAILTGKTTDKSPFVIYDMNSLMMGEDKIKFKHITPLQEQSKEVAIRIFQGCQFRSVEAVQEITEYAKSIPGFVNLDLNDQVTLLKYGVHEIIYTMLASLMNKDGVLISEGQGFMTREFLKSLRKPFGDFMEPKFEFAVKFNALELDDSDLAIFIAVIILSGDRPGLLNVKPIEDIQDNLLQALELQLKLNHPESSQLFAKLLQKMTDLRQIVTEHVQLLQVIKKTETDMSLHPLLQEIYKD
Assay: LanthaScreen TR-FRET PPARG Competitive Binding Assay
Set-up: key: “+” indicates the degree of the binding activity, and as the number of “+” increases, the binding activity is stronger; ++: “+” indicates the degree of the binding activity, and as the number of “+” increases, the binding activity is stronger; +++: “+” indicates the degree of the binding activity, and as the number of “+” increases, the binding activity is stronger; ++++: “+” indicates the degree of the binding activity, and as the number of “+” increases, the binding activity is stronger
Settings: degree of binding activity
Description: The following experiment was performed to evaluate the PPARG (peroxisome proliferator activated receptor-gamma) binding capacity and transcriptional activity of the compounds prepared in the examples of the invention. For the experiment, LanthaScreen™ TR-FRET PPARG Competitive Binding Assay Kit (PV4894, Invitrogen) was used according to the manufacturer's instruction. […] The mixture was loaded in a 384-well plate (Greiner, 784075) by 20 μL per well, followed by reaction at room temperature for 1 hour. Upon completion of the reaction, fluorescence value was measured by using Flexstation 3 (Molecular Devices) with time-resolved fluorescence (RFU) mode (excitation 1: 340 nm, emission 1: 518 nm, excitation 2: 340 nm, emission 2: 488 nm, integration delay 50 μs, integration 400 μs). The results were calculated by using 518 nm RFUs/488 nm RFUs ratio. The activity of the compounds of the invention was compared with that of the vehicle, which was calculated by ratio according to the formula [100%−compound of the example ratio/vehicle ratio]. At this time, the binding activity ratio to rosiglitazone was compared.

Binding assay (1 μLM) | SMILES
++++ | O=C(NCc1ccccc1)c1ccc2c(c1)CCCN2Cc1ccc(-c2ccccc2C(=O)O)cc1 [Example 28, 4′-((6-(benzylcarbamoyl)-3,4-dihydroquinoline-1(2H)-yl)methyl)-[1,1′-biphenyl]-2-carboxylic acid]
++++ | O=C(NCc1ccccc1Br)c1ccc2c(c1)CCCN2Cc1ccc(-c2ccccc2C(=O)O)cc1 [Example 29, 4′-((6-((2-bromobenzyl)carbamoyl)-3,4-dihydroquinoline-1(2H)-yl)methyl)-[1,1′-biphenyl]-2-carboxylic acid]
+++ | C[C@H](NC(=O)c1ccc2c(c1)CCCN2Cc1ccc(-c2ccccc2C(N)=O)cc1)c1ccc(C(F)(F)F)cc1 [Example 33, (S)-1-((2′-carbamoyl-[1,1′-biphenyl]-4-yl)methyl)-N-(1-(4-(trifluoromethyl)phenyl)ethyl)-1,2,3,4-tetrahydroquinoline-6-carboxamide]
+++ | C[C@H](NC(=O)c1ccc2c(c1)CCCN2Cc1ccc(-c2ccccc2C(N)=O)cc1)c1cccc(Cl)c1 [Example 35, (S)-1-((2′-carbamoyl-[1,1′-biphenyl]-4-yl)methyl)-N-(1-(3-chlorophenyl)ethyl)-1,2,3,4-tetrahydroquinoline-6-carboxamide]
++ | C[C@H](NC(=O)c1ccc2c(c1)CCCN2Cc1ccc(-c2ccccc2C(N)=O)cc1)c1cccc2ccccc12 [Example 38, (S)-1-((2′-carbamoyl-[1,1′-biphenyl]-4-yl)methyl)-N-(1-(naphthalene-1-yl)ethyl)-1,2,3,4-tetrahydroquinoline-6-carboxamide]
+++ | COc1ccccc1[C@H](C)NC(=O)c1ccc2c(c1)CCCN2Cc1ccc(-c2ccccc2C(N)=O)cc1 [Example 41, (S)-1-((2′-carbamoyl-[1,1′-biphenyl]-4-yl)methyl)-N-(1-(2-methoxyphenyl)ethyl)-1,2,3,4-tetrahydroquinoline-6-carboxamide]
+++ | C[C@H](NC(=O)c1ccc2c(c1)CCCN2Cc1ccc(-c2ccccc2C(N)=O)cc1)c1ccccc1F [Example 42, (S)-1-((2′-carbamoyl-[1,1′-biphenyl]-4-yl)methyl)-N-(1-(2-fluorophenyl)ethyl)-1,2,3,4-tetrahydroquinoline-6-carboxamide]
++ | C[C@H](NC(=O)c1ccc2c(c1)CCCN2Cc1ccc(-c2ccccc2C(N)=O)cc1)c1ccccc1C(F)(F)F [Example 43, (S)-1-((2′-carbamoyl-[1,1′-biphenyl]-4-yl)methyl)-N-(1-(2-(trifluoromethyl)phenyl)ethyl)-1,2,3,4-tetrahydroquinoline-6-carboxamide]
+++ | C[C@H](NC(=O)c1ccc2c(c1)CCCN2Cc1ccc(-c2ccccc2C(N)=O)cc1)c1cccc(OC(F)(F)F)c1 [Example 46, (S)-1-((2′-carbamoyl-[1,1′-biphenyl]-4-yl)methyl)-N-(1-(3-(trifluoromethoxy)phenyl)ethyl)-1,2,3,4-tetrahydroquinoline-6-carboxamide]
+++ | C[C@H](NC(=O)c1ccc2c(c1)CCCN2Cc1ccc(-c2ccccc2C(N)=O)cc1)c1cccc(C(F)(F)F)c1 [Example 47, (S)-1-((2′-carbamoyl-[1,1′-biphenyl]-4-yl)methyl)-N-(1-(3-(trifluoromethyl)phenyl)ethyl)-1,2,3,4-tetrahydroquinoline-6-carboxamide]
+++ | Cc1ccc([C@H](C)NC(=O)c2ccc3c(c2)CCCN3Cc2ccc(-c3ccccc3C(N)=O)cc2)cc1F [Example 49, (S)-1-((2′-carbamoyl-[1,1′-biphenyl]-4-yl)methyl)-N-(1-(3-fluoro-4-methylphenyl)ethyl)-1,2,3,4-tetrahydroquinoline-6-carboxamide]
+++ | NC(=O)c1ccccc1-c1ccc(CN2CCCc3cc(C(=O)NCc4ccccc4)ccc32)cc1 [Example 50, N-benzyl-1-((2′-carbamoyl-[1,1′-biphenyl]-4-yl)methyl)-1,2,3,4-tetrahydroquinoline-6-carboxamide]
+++ | NC(=O)c1ccccc1-c1ccc(CN2CCCc3cc(C(=O)NCc4ccccc4Br)ccc32)cc1 [Example 51, N-(2-bromobenzyl)-1-((2′-carbamoyl-[1,1′-biphenyl]-4-yl)methyl)-1,2,3,4-tetrahydroquinoline-6-carboxamide]
+++ | NC(=O)c1ccccc1-c1ccc(CN2CCCc3cc(C(=O)NCc4ccc(Br)cc4)ccc32)cc1 [Example 53, N-(4-bromobenzyl)-1-((2′-carbamoyl-[1,1′-biphenyl]-4-yl)methyl)-1,2,3,4-tetrahydroquinoline-6-carboxamide]
+++ | NC(=O)c1ccccc1-c1ccc(CN2CCCc3cc(C(=O)NCc4cccc(OC(F)(F)F)c4)ccc32)cc1 [Example 54, 1-((2′-carbamoyl-[1,1′-biphenyl]-4-yl)methyl)-N-(3-(trifluoromethoxy)benzyl)-1,2,3,4-tetrahydroquinoline-6-carboxamide]

Second part, the compound before the results:

SMILES | Binding assay (1 μLM)
O=C(NCc1ccncc1)c1ccc2c(c1)CCCN2Cc1ccc(-c2ccccc2C(=O)O)cc1 [Example 27, 4′-((6-((pyridine-4-ylmethyl)carbamoyl)-3,4-dihydroquinoline-1(2H)-yl)methyl)-[1,1′-biphenyl]-2-carboxylic acid] | +
O=C(NCc1ccc2c(c1)OCCO2)c1ccc2c(c1)CCCN2Cc1ccc(-c2ccccc2C(=O)O)cc1 [Example 30, 4′-((6-(((2,3-dihydrobenzo[b][1,4]dioxin-6-yl)methyl)carbamoyl)-3,4-dihydroquinoline-1(2H)-yl)methyl)-[1,1′-biphenyl]-2-carboxylic acid] | +++
O=C(NCc1ccc(Br)cc1)c1ccc2c(c1)CCCN2Cc1ccc(-c2ccccc2C(=O)O)cc1 [Example 31, 4′-((6-((4-bromobenzyl)carbamoyl)-3,4-dihydroquinoline-1 (2H)-yl)methyl)-[1,1′-biphenyl]-2-carboxylic acid] | ++++
O=C(NCc1cccc(OC(F)(F)F)c1)c1ccc2c(c1)CCCN2Cc1ccc(-c2ccccc2C(=O)O)cc1 [Example 32, 4′-((6-((3-(trifluoromethoxy)benzyl)carbamoyl)-3,4-dihydroquinoline-1(2H)-yl)methyl)-[1,1′-biphenyl]-2-carboxylic acid] | +++
C[C@H](NC(=O)c1ccc2c(c1)CCCN2Cc1ccc(-c2ccccc2C(N)=O)cc1)c1ccc(OC(F)(F)F)cc1 [Example 34, (S)-1-((2′-carbamoyl-[1,1′-biphenyl]-4-yl)methyl)-N-(1-(4-(trifluoromethoxy)phenyl)ethyl)-1,2,3,4-tetrahydroquinoline-6-carboxamide] | ++++
C[C@H](NC(=O)c1ccc2c(c1)CCCN2Cc1ccc(-c2ccccc2C(N)=O)cc1)c1ccc(Br)cc1 [Example 37, (S)—N-(1-(4-bromophenyl)ethyl)-1-((2′-carbamoyl-[1,1′-biphenyl]-4-yl)methyl)-1,2,3,4-tetrahydroquinoline-6-carboxamide] | +++
C[C@H](NC(=O)c1ccc2c(c1)CCCN2Cc1ccc(-c2ccccc2C(N)=O)cc1)c1ccc(F)c(F)c1 [Example 39, (S)-1-((2′-carbamoyl-[1,1′-biphenyl]-4-yl)methyl)-N-(1-(3,4-difluorophenyl)ethyl)-1,2,3,4-tetrahydroquinoline-6-carboxamide] | +++
COc1cccc([C@H](C)NC(=O)c2ccc3c(c2)CCCN3Cc2ccc(-c3ccccc3C(N)=O)cc2)c1 [Example 40, (S)-1-((2′-carbamoyl-[1,1′-biphenyl]-4-yl)methyl)-N-(1-(3-methoxyphenyl)ethyl)-1,2,3,4-tetrahydroquinoline-6-carboxamide] | +++
C[C@H](NC(=O)c1ccc2c(c1)CCCN2Cc1ccc(-c2ccccc2C(N)=O)cc1)c1cccc(F)c1 [Example 45, (S)-1-((2′-carbamoyl-[1,1′-biphenyl]-4-yl)methyl)-N-(1-(3-fluorophenyl)ethyl)-1,2,3,4-tetrahydroquinoline-6-carboxamide] | +++
NC(=O)c1ccccc1-c1ccc(CN2CCCc3cc(C(=O)NCc4ccncc4)ccc32)cc1 [Example 48, 1-((2′-carbamoyl-[1,1′-biphenyl]-4-yl)methyl)-N-(pyridine-4-ylmethyl)-1,2,3,4-tetrahydroquinoline-6-carboxamide] | +
NC(=O)c1ccccc1-c1ccc(CN2CCCc3cc(C(=O)NCc4ccc5c(c4)OCCO5)ccc32)cc1 [Example 52, 1-((2′-carbamoyl-[1,1′-biphenyl]-4-yl)methyl)-N-((2,3-dihydrobenzo[b][1,4]dioxin-6-yl)methyl)-1,2,3,4-tetrahydroquinoline-6-carboxamide] | +++
